From US20120014926A1, “Activation of Precursor Cells for Cell Therapy” (priority 2009, published 2012)

Columns and labels:
[1] = system: BMC; test: BMC migration towards SDF-1, modified Boyden chamber assay; assay type: cell-based, mouse; details: inhibitor added to upper chamber along with treated BMC; p<0.05
Method: BMC migration towards SDF-1 was determined using a modified Boyden chamber assay. BMC were pre-incubated with either PBS or the invented solution for 4 hours at 37 deg.C. and transferred to the upper chamber of inserts in a 24-well plate containing DMEM and 100 ng/ml SDF-1. Migrated cells were counted after 6 hrs incubation at 37° C. Inhibitors AMD3100, LY294002, L-NMMA, and anti-CXCR4 antibody were added to the upper chamber along with BMC.

[2] = system: mice after surgical implementation of hindlimb ischemia; test: Homing of injected GFP BMC to ischemic hindlimb muscle; assay type: in vivo, mouse; details: SDF-1 protein 100 ng injected into ischemic hindlimb muscle; treated and untreated cells
Method: SDF1 protein was also injected into the ischemic hindlimb muscle to enhance BMC homing. SDF-1 protein (100 ng) was injected into the ischemic hindlimb muscle of WT BL6 mice twice at consecutive days after the surgery. The hindlimb muscles were recovered 7 days after the cell injection, stained with DAPI for nucleus (light white), and examined for GFP cells (bright white, arrow pointed) incorporation under fluorescent microscopy. (A) untreated BMC, B) Treated BMC, C) Untreated BMC+SDF-1, D) Treated BMC+SDF-1. E) The incorporated GFP cells were quantified as cells per high power field (HPF). *P<0.05, and **P<0.01 versus all other groups (n=6).

Compound	mobility of the treated BMC on addition of inhibitor [1]	effect of exogenous SDF-1 on homing of injected BMC [2]
c1cc(CN2CCCNCCNCCCNCC2)ccc1CN1CCCNCCNCCCNCC1 [AMD3100]	significantly reduced	
CNC(=N)NCCC[C@H](N)C(=O)O [L-NNMA]	significantly reduced	
SDF-1: stromal cell derived factor-1, chemotactic cytokine, protein injected into ischemic hindlimb muscle		homed more efficiently
